Data as given in ChEMBL document CHEMBL5104143, “Synthesis and evaluation of hydrazinyl-containing pyrrolo[2,3-d]pyrimidine series as potent, selective and oral JAK1 inhibitors for the treatment of rheumatoid arthritis” (Bioorg Med Chem Lett, 2022).

Tests used:
[1] = target: T1, Tyrosine-protein kinase JAK3 (Homo sapiens, UniProt P52333)
T1 sequence (P52333 whole entry): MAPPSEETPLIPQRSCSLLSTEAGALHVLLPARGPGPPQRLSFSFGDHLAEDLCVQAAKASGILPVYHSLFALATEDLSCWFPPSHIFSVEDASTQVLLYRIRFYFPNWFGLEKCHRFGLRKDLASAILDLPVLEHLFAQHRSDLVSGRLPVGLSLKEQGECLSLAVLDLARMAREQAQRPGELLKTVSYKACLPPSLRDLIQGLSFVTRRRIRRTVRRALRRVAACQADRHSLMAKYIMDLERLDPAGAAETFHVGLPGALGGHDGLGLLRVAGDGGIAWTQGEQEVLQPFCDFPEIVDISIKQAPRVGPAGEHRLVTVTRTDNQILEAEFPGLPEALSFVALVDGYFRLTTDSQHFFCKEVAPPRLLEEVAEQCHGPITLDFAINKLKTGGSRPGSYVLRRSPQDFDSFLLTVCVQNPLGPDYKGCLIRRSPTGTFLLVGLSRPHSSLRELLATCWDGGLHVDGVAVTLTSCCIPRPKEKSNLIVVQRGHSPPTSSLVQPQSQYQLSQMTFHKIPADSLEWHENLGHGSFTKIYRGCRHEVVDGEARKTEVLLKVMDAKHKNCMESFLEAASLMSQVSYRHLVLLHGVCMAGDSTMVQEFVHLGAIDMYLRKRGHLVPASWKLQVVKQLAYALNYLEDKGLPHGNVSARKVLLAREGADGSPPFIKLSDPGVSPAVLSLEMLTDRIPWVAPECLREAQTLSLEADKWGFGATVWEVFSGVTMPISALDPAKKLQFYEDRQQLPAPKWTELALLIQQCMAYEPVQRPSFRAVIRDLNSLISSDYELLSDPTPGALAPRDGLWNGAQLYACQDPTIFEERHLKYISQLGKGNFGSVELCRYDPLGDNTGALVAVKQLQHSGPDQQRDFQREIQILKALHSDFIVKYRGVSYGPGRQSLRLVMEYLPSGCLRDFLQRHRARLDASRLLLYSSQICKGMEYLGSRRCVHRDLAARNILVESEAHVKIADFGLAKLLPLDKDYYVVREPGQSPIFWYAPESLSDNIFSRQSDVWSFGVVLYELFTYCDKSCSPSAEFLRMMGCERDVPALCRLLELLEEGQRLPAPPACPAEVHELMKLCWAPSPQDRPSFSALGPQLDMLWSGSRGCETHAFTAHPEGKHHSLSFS
Description: Inhibition of JAK3 (unknown origin)

[2] = target: Tyrosine-protein kinase JAK1 (Homo sapiens, UniProt P23458); experiment: Inhibition of JAK1 (unknown origin)
Chain of Tyrosine-protein kinase JAK1 (P23458 whole entry): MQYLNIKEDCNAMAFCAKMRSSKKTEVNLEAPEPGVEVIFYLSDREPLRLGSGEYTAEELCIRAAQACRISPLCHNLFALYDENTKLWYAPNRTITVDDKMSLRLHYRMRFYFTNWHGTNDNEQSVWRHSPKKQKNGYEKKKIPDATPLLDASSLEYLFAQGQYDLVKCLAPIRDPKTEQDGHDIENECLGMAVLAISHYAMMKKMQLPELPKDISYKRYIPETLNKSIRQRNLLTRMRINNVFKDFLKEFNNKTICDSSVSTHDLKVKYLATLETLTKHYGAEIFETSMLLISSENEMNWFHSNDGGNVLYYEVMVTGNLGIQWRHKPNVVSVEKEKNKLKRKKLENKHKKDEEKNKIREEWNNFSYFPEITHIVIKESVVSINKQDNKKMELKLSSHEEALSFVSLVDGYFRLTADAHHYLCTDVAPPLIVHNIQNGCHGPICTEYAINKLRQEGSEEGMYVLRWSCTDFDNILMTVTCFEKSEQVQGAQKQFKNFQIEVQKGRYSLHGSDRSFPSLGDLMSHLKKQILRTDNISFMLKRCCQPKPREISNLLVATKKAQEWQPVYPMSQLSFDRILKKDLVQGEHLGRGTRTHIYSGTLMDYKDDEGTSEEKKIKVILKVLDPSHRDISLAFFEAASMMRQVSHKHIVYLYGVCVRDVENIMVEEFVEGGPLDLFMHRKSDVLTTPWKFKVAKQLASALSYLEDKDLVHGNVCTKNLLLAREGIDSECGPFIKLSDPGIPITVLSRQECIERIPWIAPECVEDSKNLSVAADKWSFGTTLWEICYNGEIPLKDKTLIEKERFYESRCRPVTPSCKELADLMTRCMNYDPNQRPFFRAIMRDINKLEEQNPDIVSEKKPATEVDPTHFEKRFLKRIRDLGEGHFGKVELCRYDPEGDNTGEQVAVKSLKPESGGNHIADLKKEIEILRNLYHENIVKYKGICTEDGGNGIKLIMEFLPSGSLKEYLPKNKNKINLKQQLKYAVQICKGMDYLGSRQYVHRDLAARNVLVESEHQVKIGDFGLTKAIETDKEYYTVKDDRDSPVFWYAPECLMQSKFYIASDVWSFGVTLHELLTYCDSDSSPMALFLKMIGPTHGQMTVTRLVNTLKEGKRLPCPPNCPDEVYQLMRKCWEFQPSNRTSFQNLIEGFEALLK

[3] = target: Tyrosine-protein kinase JAK2 (Homo sapiens, UniProt O60674)
Chain of Tyrosine-protein kinase JAK2 (O60674 whole entry): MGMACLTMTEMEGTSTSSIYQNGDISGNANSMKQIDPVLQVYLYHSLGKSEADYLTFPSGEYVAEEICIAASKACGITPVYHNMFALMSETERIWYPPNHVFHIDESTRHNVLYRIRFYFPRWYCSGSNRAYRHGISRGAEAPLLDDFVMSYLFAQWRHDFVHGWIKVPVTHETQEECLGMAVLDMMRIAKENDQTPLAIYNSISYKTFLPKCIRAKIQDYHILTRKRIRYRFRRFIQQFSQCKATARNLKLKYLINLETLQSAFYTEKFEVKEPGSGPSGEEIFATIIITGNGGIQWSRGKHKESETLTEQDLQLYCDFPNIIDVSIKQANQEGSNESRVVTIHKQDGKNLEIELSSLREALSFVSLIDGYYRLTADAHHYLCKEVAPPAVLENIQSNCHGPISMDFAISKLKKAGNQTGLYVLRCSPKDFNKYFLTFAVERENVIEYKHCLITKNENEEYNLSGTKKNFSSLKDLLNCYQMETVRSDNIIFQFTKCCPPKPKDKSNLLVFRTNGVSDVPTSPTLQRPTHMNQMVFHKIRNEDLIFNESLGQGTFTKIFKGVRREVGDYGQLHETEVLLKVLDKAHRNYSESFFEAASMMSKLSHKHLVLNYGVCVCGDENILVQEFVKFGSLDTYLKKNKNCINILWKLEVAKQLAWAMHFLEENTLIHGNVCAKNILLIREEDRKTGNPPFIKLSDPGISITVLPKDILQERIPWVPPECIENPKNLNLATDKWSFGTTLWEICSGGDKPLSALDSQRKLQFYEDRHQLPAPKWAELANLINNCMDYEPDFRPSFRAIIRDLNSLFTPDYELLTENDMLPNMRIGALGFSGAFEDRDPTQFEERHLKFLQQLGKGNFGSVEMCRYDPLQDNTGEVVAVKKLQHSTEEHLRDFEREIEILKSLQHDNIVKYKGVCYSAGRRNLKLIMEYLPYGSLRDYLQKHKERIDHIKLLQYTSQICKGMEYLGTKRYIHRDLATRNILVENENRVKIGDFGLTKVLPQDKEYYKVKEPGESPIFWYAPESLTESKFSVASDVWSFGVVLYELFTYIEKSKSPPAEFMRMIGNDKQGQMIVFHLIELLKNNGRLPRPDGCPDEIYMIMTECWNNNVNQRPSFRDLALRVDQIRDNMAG
Description: Inhibition of JAK2 (unknown origin)

Compound	IC50 [1] [nM]	IC50 [2] [nM]	IC50 [3] [nM]
CN(c1ncnc2[nH]ccc12)N1CCCC(C(=O)N2CC(O)C2)C1 (configuration not stated)	518	155	817
CN(c1ncnc2[nH]ccc12)N1CCC[C@@H](C(=O)NCC(F)(F)F)C1	6.2	0.7	13
CN(c1ncnc2[nH]ccc12)N1CCC(C(=O)NCC#N)CC1	287	12	272
CN(c1ncnc2[nH]ccc12)N1CCCC(C)(C(=O)NCC#N)C1 (configuration not stated)	1580	1860	4800
CN(c1ncnc2[nH]ccc12)N1CCCC(C(=O)NCC(F)(F)F)C1 (configuration not stated)	16.1	2.9	33.2
CN(c1ncnc2[nH]ccc12)N1CCC(C(=O)NCC#N)C1 (configuration not stated)	25.1	3.3	43
CN(c1ncnc2[nH]ccc12)N1CCC[C@@H](C(=O)NCC#N)C1	3.9	0.3	3.6
CN(c1ncnc2[nH]ccc12)N1CCC(C(=O)NCC(F)(F)F)CC1	186	14	316
CN(c1ncnc2[nH]ccc12)N1CCCN(C(=O)CC(F)(F)F)CC1	10000	10000	10000
CN(c1ncnc2[nH]ccc12)N1CCCC(N2CCCC2=O)C1 (configuration not stated)	349	1120	3500

The remaining lines, values ahead:

IC50 [1] [nM]	IC50 [2] [nM]	IC50 [3] [nM]	Compound
362	521	1430	CC1CCC(C(=O)NCC#N)CN1N(C)c1ncnc2[nH]ccc12 (configuration not stated)
8	1.6	11.6	CN(c1ncnc2[nH]ccc12)N1CCCC(C(=O)NCC#N)C1 (configuration not stated)
29	1.9	36	CN(c1ncnc2[nH]ccc12)N1CCC(C(=O)NCC(F)(F)F)C1 (configuration not stated)
15	0.16	8.5	CN(c1ncnc2[nH]ccc12)N1CC[C@@H](C(=O)NCC(F)(F)F)C1
83.2	21.3	148	COCNC(=O)C1CCCN(N(C)c2ncnc3[nH]ccc23)C1 (configuration not stated)
13	18	361	CN(c1ncnc2[nH]ccc12)N1CC[C@H](C(=O)NCC(F)(F)F)C1
77.4	15.1	165	CN(CC(F)(F)F)C(=O)C1CCCN(N(C)c2ncnc3[nH]ccc23)C1 (configuration not stated)
339	309	2000	CC1CCC(C(=O)NCC(F)(F)F)CN1N(C)c1ncnc2[nH]ccc12 (configuration not stated)
8.3	1.6	16.1	CN(c1ncnc2[nH]ccc12)N1CCCC(C(=O)NCC(F)F)C1 (configuration not stated)
5970	5020	10000	CN(c1ncnc2[nH]ccc12)N1CCC(C)(C(=O)NCC(F)(F)F)C1 (configuration not stated)
188	35	–	CN(c1ncnc2[nH]ccc12)N1CCCC(C(=O)NCCC#N)C1 (configuration not stated)
